Data reported in patent US20150105252A1, “SUBSTITUTED PYRAZOLES AS HERBICIDES” (E I DU PONT DE NEMOURS AND COMPANY, priority 2013, published 2015).

Columns and labels:
sedge, umbrella [1] = experiment: Test B flood; assay type: in vivo, Cyperus difformis; conditions: 250 g ai/ha, visual rating on 0 to 100 scale (0 no effect, 100 complete control), 13 to 15 days
How it was run: (§1)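 Plants were grown to the 2-leaf stage and pots flooded to 3 cm above soil. Compounds were applied directly into the paddy water, with depth kept for the test. After 13–15 days in greenhouse, response was rated visually against controls on a 0 (no effect) to 100 (complete control) scale.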

barnyardgrass [2] = experiment: Test A preemergence; assay type: in vivo, Echinochloa crus-galli; conditions: preemergence
How it was run: (§2)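 Ratings express plant response from 0 (no effect) to 100 (complete control), judged visually against untreated controls after approximately 10 days in the greenhouse. Preemergence applications were made as directed soil sprays onto seeded loam–sand mix, and postemergence applications onto 2–10 cm plants at one- to two-leaf stage.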

rice [3] = experiment: Test C flooded paddy test; assay type: in vivo, Oryza sativa; conditions: Flood
How it was run: (§3)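 Ratings were visual and made relative to untreated controls after 13 to 15 greenhouse days.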

sedge, umbrella [4] = experiment: Test C flooded paddy test; assay type: in vivo, Cyperus difformis; conditions: Flood
How it was run: as §3

pigweed [5] = experiment: Test A preemergence; assay type: in vivo, Amaranthus retroflexus; conditions: preemergence
How it was run: as §2

velvetleaf [6] = experiment: Test A preemergence; assay type: in vivo, Abutilon theophrasti; conditions: preemergence
How it was run: as §2

barnyardgrass [7] = experiment: Test A postemergence; assay type: in vivo, Echinochloa crus-galli
How it was run: as §2

crabgrass, large [8] = experiment: Test A preemergence; assay type: in vivo, Digitaria sanguinalis; conditions: preemergence
How it was run: as §2

barnyardgrass [9] = experiment: Test B flood; assay type: in vivo, Echinochloa crus-galli; conditions: 250 g ai/ha, visual rating on 0 to 100 scale (0 no effect, 100 complete control), 13 to 15 days
How it was run: as §1

rice [10] = experiment: Test B flood; assay type: in vivo, Oryza sativa; conditions: 250 g ai/ha, visual rating on 0 to 100 scale (0 no effect, 100 complete control), 13 to 15 days
How it was run: as §1

foxtail, giant [11] = experiment: Test A preemergence; assay type: in vivo, Setaria faberii; conditions: preemergence
How it was run: as §2

crabgrass, large [12] = experiment: Test A postemergence; assay type: in vivo, Digitaria sanguinalis
How it was run: as §2

morningglory [13] = experiment: Test A preemergence; assay type: in vivo, Ipomoea spp.; conditions: preemergence
How it was run: as §2

wheat [14] = experiment: Test A postemergence; assay type: in vivo, Triticum aestivum
How it was run: as §2

barnyardgrass [15] = experiment: Test C flooded paddy test; assay type: in vivo, Echinochloa crus-galli; conditions: Flood
How it was run: as §3

foxtail, giant [16] = experiment: Test A postemergence; assay type: in vivo, Setaria faberii
How it was run: as §2

pigweed [17] = experiment: Test A postemergence; assay type: in vivo, Amaranthus retroflexus
How it was run: as §2

corn [18] = experiment: Test A preemergence; assay type: in vivo, Zea mays; conditions: preemergence
How it was run: as §2

morningglory [19] = experiment: Test A postemergence; assay type: in vivo, Ipomoea spp.
How it was run: as §2

ducksalad [20] = experiment: Test B flood; assay type: in vivo, Heteranthera limosa; conditions: 250 g ai/ha, visual rating on 0 to 100 scale (0 no effect, 100 complete control), 13 to 15 days
How it was run: as §1

velvetleaf [21] = experiment: Test A postemergence; assay type: in vivo, Abutilon theophrasti
How it was run: as §2

corn [22] = experiment: Test A postemergence; assay type: in vivo, Zea mays
How it was run: as §2

ducksalad [23] = experiment: Test C flooded paddy test; assay type: in vivo, Heteranthera limosa; conditions: Flood
How it was run: as §3

wheat [24] = experiment: Test A preemergence; assay type: in vivo, Triticum aestivum; conditions: preemergence
How it was run: as §2

[25] = 500 g ai/ha, visual injury after approx. 10 days, 0 to 100 scale (0 no effect, 100 complete control)
[26] = 31 g ai/ha, scale 0 to 100 (0 no effect, 100 complete control)
[27] = 62 g ai/ha, scale 0 to 100 (0 no effect, 100 complete control)
[28] = 125 g ai/ha, visual injury approx. 10 days after treatment
[29] = Postemergence, 500 g ai/ha, 0 to 100 scale (0 no effect, 100 complete control)
[30] = postemergence, 125 g ai/ha, about 10 days, visual rating on 0 to 100 scale (0 no effect, 100 complete control)

CCc1cc(C(=O)NC(C)C)nn1Cc1ccnc(OCC(F)(F)F)c1 [Compound 149]
60: Barnyardgrass plant response rating (barnyardgrass [2]; [25]) | Plant response rating, Sedge, Umbrella (sedge, umbrella [4]; [26]) | Wheat plant response rating (wheat [14]; [29]) | Morningglory plant response rating (morningglory [19]; [30])
80: Plant response rating, Sedge, Umbrella (sedge, umbrella [4]; 125 g ai/ha, scale 0 to 100) | Pigweed plant response rating (0 to 100 scale) (pigweed [5]; [28]) | Barnyardgrass plant response rating (barnyardgrass [7]; [29]) | Foxtail, Giant plant response rating (foxtail, giant [16]; [29]) | Corn plant response rating (corn [22]; [29])
0: Plant response rating, Rice (rice [3]; [26]) | Plant response rating, Rice (rice [3]; [27]) | Plant response rating, Rice (rice [3]; 125 g ai/ha, scale 0 to 100) | Plant response rating, Barnyardgrass (barnyardgrass [15]; [26]) | Plant response rating, Barnyardgrass (barnyardgrass [15]; [27]) | Plant response rating, Barnyardgrass (barnyardgrass [15]; 125 g ai/ha, scale 0 to 100) | Corn plant response rating (0 to 100 scale) (corn [18]; [28]) | Plant response rating, Ducksalad (ducksalad [23]; [26]) | Wheat plant response rating (0 to 100 scale) (wheat [24]; [28])
100: Pigweed plant response rating (pigweed [5]; [25]) | Crabgrass, Large plant response rating (0 to 100 scale) (crabgrass, large [8]; [28]) | Crabgrass, Large plant response rating (crabgrass, large [8]; [25]) | Foxtail, Giant plant response rating (foxtail, giant [11]; [25]) | Morningglory plant response rating (morningglory [13]; [25]) | Pigweed plant response rating (pigweed [17]; [29]) | Morningglory plant response rating (morningglory [19]; [29])
55: Plant response rating, Ducksalad (ducksalad [23]; [27])
20: Velvetleaf plant response rating (0 to 100 scale) (velvetleaf [6]; [28]) | Wheat plant response rating (wheat [14]; [30])
70: Plant response rating, Sedge, Umbrella (sedge, umbrella [4]; [27]) | Foxtail, Giant plant response rating (0 to 100 scale) (foxtail, giant [11]; [28]) | Foxtail, Giant plant response rating (foxtail, giant [16]; [30]) | Plant response rating, Ducksalad (ducksalad [23]; 125 g ai/ha, scale 0 to 100)
10: Barnyardgrass plant response rating (barnyardgrass [2]; 125 g ai/ha, visual injury, 0 to 100 scale, approx. 10 days) | Plant response rating, Rice (rice [10]) | Morningglory plant response rating (0 to 100 scale) (morningglory [13]; [28])
95: Plant response rating, Sedge, Umbrella (sedge, umbrella [1]) | Plant response rating, Ducksalad (ducksalad [20])
40: Crabgrass, Large plant response rating (crabgrass, large [12]; [30]) | Corn plant response rating (corn [22]; [30])
30: Barnyardgrass plant response rating (barnyardgrass [7]; [30]) | Plant response rating, Barnyardgrass (barnyardgrass [9]) | Corn plant response rating (corn [18]; [25]) | Velvetleaf plant response rating (velvetleaf [21]; [30])
50: Wheat plant response rating (wheat [24]; [25])
90: Velvetleaf plant response rating (velvetleaf [6]; [25]) | Crabgrass, Large plant response rating (crabgrass, large [12]; [29]) | Pigweed plant response rating (pigweed [17]; [30]) | Velvetleaf plant response rating (velvetleaf [21]; [29])
